Experimental data: patent publication US8110575B2, “Compounds” (Boehringer Ingelheim International GmbH, priority 2007, dated 2012)

Target: T1, human CGRP receptor (Homo sapiens, UniProt O60894+Q16602)
T1 construct: SK-N-MC membranes (˜20 μg protein) are incubated for 180 minutes at ambient temperature; endogenous in cells; host or cells: SK-N-MC cells (membrane preparation)
Experiment: Binding studies with SK-N-MC cells (expressing the human CGRP receptor)
Details: SK-N-MC membranes, 125I-iodotyrosyl-CGRP displacement
Method: A. Binding Studies with SK-N-MC Cells (Expressing the Human CGRP Receptor)
SK-N-MC membranes (˜20 μg protein) are incubated for 180 minutes at ambient temperature with 50 pM ^125I-iodotyrosyl-Calcitonin-Gene-Related Peptide and increasing concentrations of the test substances in a total volume of […] (assay buffer: 10 mM tris, 50 mM NaCl, 5 mM MgCl2, 1 mM EDTA, pH=7.4). The incubation is ended by rapid filtration through GF/B-glass fibre filters treated with polyethyleneimine (0.1%) using a cell harvester. The protein-bound radioactivity is measured using a gamma counter. Non-specific binding is defined as the bound radioactivity after the presence of 1 μM BIBN4096BS during incubation.
The concentration binding curves are analysed using computer-aided non-linear curve fitting.

T1 sequence (Q16602 23-461): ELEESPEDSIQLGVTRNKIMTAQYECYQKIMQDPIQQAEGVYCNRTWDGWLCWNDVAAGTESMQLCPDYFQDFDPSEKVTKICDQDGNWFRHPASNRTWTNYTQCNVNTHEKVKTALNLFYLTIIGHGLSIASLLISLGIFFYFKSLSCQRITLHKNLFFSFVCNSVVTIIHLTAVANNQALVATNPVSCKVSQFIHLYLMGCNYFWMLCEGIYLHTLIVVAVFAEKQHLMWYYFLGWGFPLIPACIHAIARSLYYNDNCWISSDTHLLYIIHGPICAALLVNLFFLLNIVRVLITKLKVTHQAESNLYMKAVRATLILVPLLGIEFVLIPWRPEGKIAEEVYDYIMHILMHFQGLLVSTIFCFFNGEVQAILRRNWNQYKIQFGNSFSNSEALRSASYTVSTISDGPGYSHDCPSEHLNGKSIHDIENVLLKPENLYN
T1 sequence (O60894 27-148): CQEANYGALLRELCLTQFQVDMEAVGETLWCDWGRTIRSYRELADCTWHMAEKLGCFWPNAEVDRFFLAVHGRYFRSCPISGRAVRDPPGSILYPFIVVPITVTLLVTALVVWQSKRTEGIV

Ki [nM] | SMILES
15 | O=C(c1cc(Nc2ccc3c(c2)CC2(C3)C(=O)Nc3ncccc32)ncn1)N1CCc2ccccc21 (stereo not shown) [(1)]
535 | O=C1Nc2ccccc2C2(CCN(c3cc(C(=O)N4CCc5ccccc54)ncn3)CC2)O1 [(3)]
120 | O=C(c1cc(Nc2ccc3c(c2)CC2(C3)C(=O)Nc3ncccc32)ncn1)N(CC(F)(F)F)c1ccccc1 (stereo not shown) [(6)]
132 | CN1C(=O)NC(=O)C12Cc1ccc(Nc3cc(C(=O)N4CCc5ccccc54)ncn3)cc1C2 (stereo not shown) [(9)]
